The record followed here is ChEMBL document CHEMBL4339185 (Eur J Med Chem, 2019).

Values after ≈ are worked out from the molar mass of the structure shown. Bounds are passed on as bounds.

Data set [1] concerns Staphylococcus aureus. Put plainly: Potency index, ratio of rifampicin MIC to compound MIC for Staphylococcus aureus ATCC 6538. It is filed as functional.
In data set [2] the test system is Staphylococcus epidermidis. Put plainly: Potency index, ratio of rifaximin MIC to compound MIC for Staphylococcus epidermidis 12228. It is filed as functional.
The test system of data set [3] is Enterococcus faecalis. Briefly: Potency index, ratio of rifampicin MIC to compound MIC for Enterococcus faecalis ATCC 29212. It is filed as functional.
Data set [4] relates to Staphylococcus aureus. Put plainly: Antimicrobial activity against Staphylococcus aureus ATCC 6538 incubated for 18 hrs by serial microdilution method. In kind it is functional. The settings on record: ATCC 6538, 18 h. (In general: Broth dilution looks for growth in wells or tubes with falling amounts of substance.)
Data set [5] deals with Staphylococcus epidermidis. Put plainly: Antimicrobial activity against Staphylococcus epidermidis ATCC 12228 incubated for 18 hrs by serial microdilution method. The conditions noted are these: ATCC 12228, 18 h. It is filed as functional.
The subject of data set [6] is Escherichia coli. Put plainly: Antimicrobial activity against Escherichia coli ATCC 25922 incubated for 18 hrs by serial microdilution method. It is filed as functional. The conditions noted are these: ATCC 25922, 18 h.
Data set [7] has as its system Staphylococcus aureus. Put plainly: Antimicrobial activity against methicillin-resistant Staphylococcus aureus incubated for 18 hrs by serial microdilution method. In kind it is functional.
Data set [8] deals with Staphylococcus epidermidis. Briefly: Potency index, ratio of rifampicin MIC to compound MIC for Staphylococcus epidermidis ATCC 49134. In kind it is functional.
Data set [9] relates to Staphylococcus epidermidis. Briefly: Potency index, ratio of rifaximin MIC to compound MIC for Staphylococcus epidermidis ATCC 49134. In kind it is functional.
Data set [10] deals with Staphylococcus epidermidis. Put plainly: Potency index, ratio of rifampicin MIC to compound MIC for Staphylococcus epidermidis ATCC 12228. In kind it is functional.
In data set [11] the test system is Staphylococcus aureus. Put plainly: Potency index, ratio of rifaximin MIC to compound MIC for Staphylococcus aureus ATCC 6538. It is filed as functional.
Data set [12] in a line: Solubility of the compound in water at pH 7 by UV-vis spectrophotometric analysis. In kind it is physicochemical.
The subject of data set [13] is Staphylococcus epidermidis. Put plainly: Antimicrobial activity against Staphylococcus epidermidis ATCC 49134 incubated for 18 hrs by serial microdilution method. The conditions noted are these: ATCC 49134, 18 h. In kind it is functional.
Data set [14] relates to Enterococcus faecalis. Put plainly: Potency index, ratio of rifaximin MIC to compound MIC for Enterococcus faecalis ATCC 29212. It is filed as functional.
In data set [15] the test system is Staphylococcus aureus. Put plainly: Antimicrobial activity against MLSB-resistant Staphylococcus aureus incubated for 18 hrs by serial microdilution method. In kind it is functional.
Data set [16] deals with Enterococcus faecalis. Briefly: Antimicrobial activity against Enterococcus faecalis ATCC 29212 incubated for 18 hrs by serial microdilution method. The conditions noted are these: ATCC 29212, 18 h. In kind it is functional.
Data set [17] is described as follows: Lipophilicity, log P of the compound in octanol and water incubated for 1 h under shaking condition. In kind it is physicochemical.

By MIC is commonly meant the lowest concentration that inhibits growth of the organism. Low readings indicate inhibition by little substance, high ones a need for much substance. As a reminder, the solubility is the concentration that dissolves in the medium under given conditions. High values mean a readily soluble substance, low ones a poorly soluble substance. Broadly, the logP is the decadic logarithm of the partition coefficient of the neutral form, usually between octanol and water. Read a low logP as lower lipophilicity. Regarding `CO[C@H]1/C=C/O[C@@]2(C)Oc3c(C)c(O)c4c(O)c(c(CN5CCC(N6CCC(C(=O)O)CC6)CC5)c(O)c4c3C2=O)NC(=O)/C(C)=C\C=C\[C@H](C)[C@H](O)[C@@H](C)[C@@H](O)[C@@H](C)[C@H](OC(C)=O)[C@@H]1C`, the Ratio in [1], in [2], in [3], in [8], in data set [9] and in data set [10] was 8 each time. In addition, the Ratio in data set [11] and in [14] was 8 each time. Besides, the MIC in [4] was 7.8 ng/mL (≈ 0.00846 µM); in data set [5] it was 7.8 ng/mL (≈ 0.00846 µM); in [6], more than 8 µg/mL; in [7] it was 0.0078 µg/mL (≈ 0.00846 µM); in data set [13], 7.8 ng/mL (≈ 0.00846 µM); in [15], 7.8 ng/mL (≈ 0.00846 µM). The same compound yielded an MIC in data set [16] of 1 µg/mL (≈ 1.08 µM). In [12], this compound displayed a solubility of 70000 µg/mL (≈ 75900 µM). Moreover, the logP at 1 h in data set [17] was -1.34.
Regarding `CO[C@H]1/C=C/O[C@@]2(C)Oc3c(C)c(O)c4c(O)c(c(/C=N/NC5=NCCN5)c(O)c4c3C2=O)NC(=O)/C(C)=C\C=C\[C@H](C)[C@H](O)[C@@H](C)[C@@H](O)[C@@H](C)[C@H](OC(C)=O)[C@@H]1C`, the Ratio in data set [1], in data set [2], in data set [3], in [8], in [9] and in data set [10] was 8 in each case. The Ratio in [11] and in data set [14] was 8 in each case. The MIC was 7.8 ng/mL (≈ 0.00965 µM) in data set [4]; 7.8 ng/mL (≈ 0.00965 µM) in data set [5]; more than 8 µg/mL in data set [6]; 0.0156 µg/mL (≈ 0.0193 µM) in data set [7]; 7.8 ng/mL (≈ 0.00965 µM) in data set [13]; 7.8 ng/mL (≈ 0.00965 µM) in data set [15]. The compound also gave an MIC in [16] of 1 µg/mL (≈ 1.24 µM). This compound also yielded a solubility in [12] of 4250 µg/mL (≈ 5260 µM). The logP at 1 h in [17] was 1.33.
Take `CO[C@H]1/C=C/O[C@@]2(C)Oc3c(C)c(O)c4c(O)c(c(CN5CCN(c6ccccn6)CC5)c(O)c4c3C2=O)NC(=O)/C(C)=C\C=C\[C@H](C)[C@H](O)[C@@H](C)[C@@H](O)[C@@H](C)[C@H](OC(C)=O)[C@@H]1C`: the MIC in data set [4] is 2000 ng/mL (≈ 2.29 µM); in data set [5], 250 ng/mL (≈ 0.286 µM); in data set [6] it was more than 8 µg/mL; in data set [7], 1 µg/mL (≈ 1.15 µM); in [13] it was 250 ng/mL (≈ 0.286 µM); in data set [15] it was 500 ng/mL (≈ 0.573 µM). The MIC in data set [16] was more than 8 µg/mL. Also, the solubility in data set [12] is less than 50 µg/mL. For the same compound, in data set [17], the logP at 1 h was 1.99.
